Key:
[1] = target: T1, human ERα LBD (Homo sapiens, UniProt P03372); assay: Competitive fluorescence polarization binding assay, ERα; conditions: for RBA ERα: IC50 estradiol/IC50 compound × 100, estradiol = 100%; for α/β ratio: ratio of RBA ERα to RBA ERβ
T1 sequence (P03372 311-547 limits assumed): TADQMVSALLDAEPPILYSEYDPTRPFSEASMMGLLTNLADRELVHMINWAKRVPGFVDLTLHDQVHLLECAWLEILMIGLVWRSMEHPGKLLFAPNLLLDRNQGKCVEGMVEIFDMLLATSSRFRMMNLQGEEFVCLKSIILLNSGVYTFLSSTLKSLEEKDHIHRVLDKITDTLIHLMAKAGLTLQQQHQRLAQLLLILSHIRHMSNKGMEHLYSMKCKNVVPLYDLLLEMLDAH

[2] = target: human ERβ LBD (Homo sapiens, UniProt Q92731); assay: Competitive fluorescence polarization binding assay, ERβ; conditions: for RBA ERβ: IC50 estradiol/IC50 compound × 100, estradiol = 100%
Sequence of human ERβ LBD (Q92731 264-498 limits assumed): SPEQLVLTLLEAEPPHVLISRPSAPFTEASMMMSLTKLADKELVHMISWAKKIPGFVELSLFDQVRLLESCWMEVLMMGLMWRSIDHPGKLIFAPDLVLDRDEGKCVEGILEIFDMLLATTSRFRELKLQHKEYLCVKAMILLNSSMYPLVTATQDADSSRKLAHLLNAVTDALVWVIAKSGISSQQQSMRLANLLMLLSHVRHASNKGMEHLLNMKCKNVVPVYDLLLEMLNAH

[3] = tested on: MCF-7 cells; assay: Cell viability assay; assay type: cell-based, human; conditions: Homo sapiens, MCF7, 72 h, read-out: MCF-7 IC50
[4] = tested on: T-47D cells; assay: Cell viability assay; assay type: cell-based, human; conditions: Homo sapiens, T47D, 72 h, read-out: T-47D IC50
[5] = tested on: T-47D^D538G cells; assay: Cell viability assay; assay type: cell-based, human; conditions: Homo sapiens, 72 h, read-out: T-47D^D538G IC50
[6] = tested on: T-47D^Y537S cells; assay: Cell viability assay; assay type: cell-based, human; conditions: Homo sapiens, 72 h, read-out: T-47D^Y537S IC50

| Structure (SMILES) | Ki [1] | RBA ERα [1] | α/β ratio [1] | Ki [2] | RBA ERβ [2] | IC50 [3] | IC50 [4] | IC50 [5] | IC50 [6] |
| --- | --- | --- | --- | --- | --- | --- | --- | --- | --- |
| CC(C)=CC(=O)Nc1ccc(OS(=O)(=O)C2CC3OC2C(c2ccc(O)cc2)=C3c2ccc(O)cc2)cc1 (stereo not shown) [Compound 26c, 4-(3-Methylbut-2-enamido)phenyl-5,6-bis(4-hydroxyphenyl)-7-oxabicyclo[2.2.1]hept-5-ene-2-sulfonate] | 0.00084 µM | 3.28 ± 0.17% | 2.50 | 0.00509 µM | 1.31 ± 0.66% | 3.16 ± 0.63 µM | 15.8 ± 0.68 µM | 8.75 ± 0.25 µM | 12 ± 0.4 µM |
| C/C=C/C(=O)Nc1ccc(C2=C(c3ccc(O)cc3)C3OC2CC3S(=O)(=O)Oc2ccccc2)cc1 (stereo not shown) [Compound 28b, Phenyl-5-(4-((E)-but-2-enamido)phenyl)-6-(4-hydroxyphenyl)-7-oxabicyclo[2.2.1]hept-5-ene-2-sulfonate] | 0.0002 µM | 14.08 ± 0.25% | 1.35 | 0.00064 µM | 10.40 ± 0.23% | 0.44 ± 0.11 µM | 25.6 ± 0.98 µM | 17.1 ± 0.65 µM | > 31 µM |
| CC(C)=CC(=O)Nc1ccc(C2=C(c3ccc(O)cc3)C3OC2CC3S(=O)(=O)N(CC(F)(F)F)c2ccc(F)cc2)cc1 (stereo not shown) [Compound 29g, N-(4-(5-(N-(4-Fluorophenyl)-N-(2,2,2-trifluoroethyl)sulfamoyl)-3-(4-hydroxyphenyl)-7-oxabicyclo[2.2.1]hept-2-en-2-yl)phenyl)-3-methylbut-2-enamide] | 0.00037 µM | 7.52 ± 0.29% | 7.37 | 0.00654 µM | 1.02 ± 0.13% | 0.64 ± 0.1 µM | 5.28 ± 0.23 µM | 7.82 ± 0.47 µM | > 31 µM |
| O=C(CCl)Nc1ccc(OS(=O)(=O)C2CC3OC2C(c2ccc(O)cc2)=C3c2ccc(O)cc2)cc1 (stereo not shown) [Compound 26e, 4-(2-Chloroacetamido)phenyl-5,6-bis(4-hydroxyphenyl)-7-oxabicyclo[2.2.1]hept-5-ene-2-sulfonate] | 0.00271 µM | 1.02 ± 0.13% | 1.85 | 0.0121 µM | 0.55 ± 0.02% | 3.42 ± 0.32 µM | 8.2 ± 0.36 µM | 7.86 ± 0.37 µM | 8.85 ± 0.61 µM |
| C=CC(=O)Nc1ccc(OS(=O)(=O)C2CC3OC2C(c2ccc(O)cc2)=C3c2ccc(O)cc2)cc1 (stereo not shown) [Compound 26a, 4-Acrylamidophenyl-5,6-bis(4-hydroxyphenyl)-7-oxabicyclo[2.2.1]hept-5-ene-2-sulfonate] | – | 8.04 ± 0.87% | 2.08 | – | 3.86 ± 0.34% | 7.72 ± 0.64 µM | > 31 µM | > 31 µM | 27.2 ± 0.73 µM |
| CC(C)=CC(=O)Nc1ccc(C2=C(c3ccc(O)cc3)C3CC(S(=O)(=O)N(CC(F)(F)F)c4ccccc4)C2O3)cc1 (stereo not shown) [Compound 29e, N-(4-(3-(4-Hydroxyphenyl)-6-(N-phenyl-N-(2,2,2-trifluoroethyl)sulfamoyl)-7-oxabicyclo[2.2.1]hept-2-en-2-yl)phenyl)-3-methylbut-2-enamide] | 0.00029 µM | 9.50 ± 0.09% | 33.9 | 0.0238 µM | 0.28 ± 0.05% | 0.66 ± 0.12 µM | 5.1 ± 0.32 µM | 5.18 ± 0.31 µM | 1.79 ± 0.17 µM |
| O=C(CBr)Nc1ccc(C2=C(c3ccc(O)cc3)C3OC2CC3S(=O)(=O)Oc2ccccc2)cc1 (stereo not shown) [Compound 28e, Phenyl-5-(4-(2-bromoacetamido)phenyl)-6-(4-hydroxyphenyl)-7-oxabicyclo[2.2.1]hept-5-ene-2-sulfonate] | 0.00029 µM | 9.44 ± 0.40% | 26.22 | 0.0185 µM | 0.36 ± 0.03% | 1.1 ± 0.14 µM | 19.7 ± 0.32 µM | > 31 µM | > 31 µM |
| C#CC(=O)Nc1ccc(OS(=O)(=O)C2CC3OC2C(c2ccc(O)cc2)=C3c2ccc(O)cc2)cc1 (stereo not shown) [Compound 26d, 4-Propiolamidophenyl-5,6-bis(4-hydroxyphenyl)-7-oxabicyclo[2.2.1]hept-5-ene-2-sulfonate] | 0.00325 µM | 0.85 ± 0.08% | 1.73 | 0.0136 µM | 0.49 ± 0.04% | 1.79 ± 0.4 µM | 6.91 ± 0.29 µM | 9.33 ± 0.46 µM | 8.93 ± 0.25 µM |
| CC(C)=CC(=O)Nc1ccc(C2=C(c3ccc(O)cc3)C3CC(S(=O)(=O)Oc4ccc(O)cc4)C2O3)cc1 (stereo not shown) [Compound 28f, 4-Hydroxyphenyl-5-(4-hydroxyphenyl)-6-(4-(3-methylbut-2-enamido)phenyl)-7-oxabicyclo[2.2.1]hept-5-ene-2-sulfonate] | 0.00035 µM | 7.93 ± 0.34% | 2.41 | 0.00203 µM | 3.29 ± 0.25% | 0.93 ± 0.19 µM | 8.53 ± 0.12 µM | > 31 µM | 9.11 ± 0.35 µM |
| Nc1ccc(C2=C(c3ccc(O)cc3)C3OC2CC3S(=O)(=O)N(CC(F)(F)F)c2ccc(O)cc2)cc1 (stereo not shown) [Compound 29l, 5-(4-Aminophenyl)-N,6-bis(4-hydroxyphenyl)-N-(2,2,2-trifluoroethyl)-7-oxabicyclo[2.2.1]hept-5-ene-2-sulfonamide] | 0.00114 µM | 2.43 ± 0.27% | 1.03 | 0.00284 µM | 2.35 ± 0.33% | 3.17 ± 0.33 µM | 8.11 ± 0.37 µM | > 31 µM | > 31 µM |
| O=C(CBr)Nc1ccc(OS(=O)(=O)C2CC3OC2C(c2ccc(O)cc2)=C3c2ccc(O)cc2)cc1 (stereo not shown) [Compound 26f, 4-(2-Bromoacetamido)phenyl-5,6-bis(4-hydroxyphenyl)-7-oxabicyclo[2.2.1]hept-5-ene-2-sulfonate] | – | – | 2.08 | – | 3.86 ± 0.34% | 0.5 ± 0.3 µM | 9.11 ± 0.21 µM | > 31 µM | > 31 µM |
| C=CC(=O)Nc1ccc(C2=C(c3ccc(O)cc3)C3OC2CC3S(=O)(=O)Oc2ccccc2)cc1 (stereo not shown) [Compound 28a, Phenyl-5-(4-acrylamidophenyl)-6-(4-hydroxyphenyl)-7-oxabicyclo[2.2.1]hept-5-ene-2-sulfonate] | 0.00015 µM | 18.55 ± 0.34% | 15.59 | 0.00561 µM | 1.19 ± 0.27% | 5.07 ± 0.71 µM | > 31 µM | > 31 µM | > 31 µM |
| CC(C)=CC(=O)Nc1ccc(C2=C(c3ccc(O)cc3)C3CC(S(=O)(=O)N(CC(F)(F)F)c4ccc(C)cc4)C2O3)cc1 (stereo not shown) [Compound 29d, N-(4-(3-(4-Hydroxyphenyl)-6-(N-(p-tolyl)-N-(2,2,2-trifluoroethyl)sulfamoyl)-7-oxabicyclo[2.2.1]hept-2-en-2-yl)phenyl)-3-methylbut-2-enamide] | 0.00043 µM | 6.49 ± 0.21% | 4.74 | 0.00487 µM | 1.37 ± 0.11% | 0.75 ± 0.21 µM | 8.33 ± 0.22 µM | > 31 µM | > 31 µM |
| O=C(CCl)Nc1ccc(C2=C(c3ccc(O)cc3)C3CC(S(=O)(=O)Oc4ccccc4)C2O3)cc1 (stereo not shown) [Compound 28d, Phenyl-6-(4-(2-chloroacetamido)phenyl)-5-(4-hydroxyphenyl)-7-oxabicyclo[2.2.1]hept-5-ene-2-sulfonate] | 0.0008 µM | 3.46 ± 0.02% | 3.76 | 0.00725 µM | 0.92 ± 0.17% | 0.66 ± 0.12 µM | 13.3 ± 0.77 µM | > 31 µM | > 31 µM |
